# Assay results: paper PMC7356157, “Shorter Antibacterial Peptide Having High Selectivity for E. coli Membranes and Low Potential for Inducing Resistance” (Microorganisms, 2020)
# Where two headings read alike, the source gives them in different places. No end group written: not given here.
# Experiments:
# E. coli ATCC 25922 [1] = format: cell-based; conditions: for MIC E. coli 25922: broth microdilution, MHB, ~5 × 10^5 CFU/mL, 18 h, 37 °C, OD 620 nm, 100 to 0.2 µM; for MIC against E. coli 25922, MHB: no serum
# P. aeruginosa 27853 = test: MIC by broth microdilution; format: cell-based; conditions: MHB, 18 h, 37 °C
# [2] = test system: human red blood cells (hRBC); test: Haemolytic activity (MHC); format: cell-based; conditions: 5% v/v hRBC in 1X PBS, 200–0.39 µM, 1 h, 37 °C, absorbance 560 nm
# Experimental: A haemolytic activity assay was used for determining whether peptides acted on hRBC membrane by calculating the minimum haemolytic concentration (MHC). Briefly, 100 µL serial dilutions of peptides were incubated in a 96-well plate with an equal volume of a fresh hRBC suspension at 5% v/v in 1X PBS (200–0.39 µM final peptide concentrations). The samples were spun at 1000× g for 5 min after having been incubated at 37 °C for 1 h and a Multiskan spectrometer (Thermo Fisher) was used for measuring 100 µL supernatant absorbance at 560 nm. Treated hRBC absorbance 0.1% Triton X-100 or 100% haemolysis was used as positive control.
# [3] = test system: E. coli clinical isolate 40; test: Resistance profile of clinical isolate (VITEK-2); format: cell-based; conditions: Escherichia coli, isolate from blood
# From the text: (§1) Approximately 50 bacterial samples were then collected from E. coli-infected patients for evaluating activity of the peptides against some clinical isolates. These samples were identified and biochemically and metabolically characterised using the VITEK-2 equipment. Isolates were profiled regarding their resistance or susceptibility to a panel of conventionally used antibiotics.
# [4] = test system: E. coli clinical isolate 44; test: Resistance profile of clinical isolate (VITEK-2); format: cell-based; conditions: Escherichia coli, isolate from blood
# From the text: as §1
# [5] = test system: E. coli clinical isolate 4; test: Resistance profile of clinical isolate (VITEK-2); format: cell-based; conditions: Escherichia coli, isolate from urine
# From the text: as §1
# E. coli ML35 43827 [6] = format: cell-based; conditions: broth microdilution
# [7] = test system: E. coli 35218 (ampicillin-resistant ATCC 35218 strain); format: cell-based; conditions: broth microdilution
# E. coli ATCC 11775 = format: cell-based; conditions: broth microdilution
# E. coli ML35 = test: Permeabilising internal membrane (ONPG); format: cell-based; conditions: 1× MIC, ONPG, 405 nm, 4.5 h
# E. coli ATCC 25922 [8] = test: Bactericidal activity (MBC); format: cell-based; conditions: aliquots of no-growth MIC wells on LBA, 18 h, 37 °C; kills 99.9%
# Experimental: (§2) Bactericidal activity was evaluated by sowing an aliquot of Luria Bertani agar (LBA) in the wells where no growth had been detected in the MIC assay.
# E. coli ML35 43827 [9] = test: Bactericidal activity (MBC); format: cell-based
# Experimental: as §2
# E. coli 35218 = format: cell-based
# Experimental: as §2
# [10] = test system: E. coli N°4 (clinical isolate); conditions: clinical isolate from urine, broth microdilution
# Experimental: (§3) The standard broth microdilution method was used for determining the peptides’ MIC [41]. […] Bacteria in Müller–Hinton broth (MHB) were used as negative control. […] The MIC was determined as the lowest peptide concentration at which bacterial growth was not detected.
# as §1
# [11] = test system: E. coli N°40 (clinical isolate); conditions: clinical isolate from blood, broth microdilution
# Experimental: as §3, §1
# [12] = test system: E. coli N°44 (clinical isolate); conditions: clinical isolate from blood, ESBL (+), broth microdilution
# Experimental: as §3, §1
# [13] = test system: E. coli N°44 (clinical isolate); format: cell-based
# Experimental: as §2
# Approximately 50 bacterial samples were then collected from E. coli-infected patients for evaluating activity of the peptides against some clinical isolates. These samples were identified and biochemically and metabolically characterised using the VITEK-2 equipment. Isolates were profiled regarding their resistance or susceptibility to a panel of conventionally used antibiotics. Three E. coli isolates having different resistance profiles were then selected following such characterisation (Appendix A): • Isolate 4 (from urine): extended spectrum beta-lactamase (ESBL) (-), resistant to ampicillin, quinolones and co-trimoxazole. • Isolate 40 (from blood): ESBL (-), resistant to ampicillin, 1st-generation cephalosporins and co-trimoxazole. • Isolate 44 (from blood): ESBL (+), resistant to aminoglycosides, quinolones, β-lactams (including 1st-, 3rd- and 4th-generation cephalosporins).
# E. coli 25922 = test: Antibacterial activity in the presence of human sera; format: cell-based; conditions: for MIC against E. coli 25922, Serum (without Pre-Incubation): peptide diluted in fresh human sera (100%), then inoculum in MHB ~5 × 10^5 CFU/mL, 18 h, 37 °C
# Experimental: The second assay involved peptide dilution in fresh human sera (100%) pre-incubated for 6 h at 37 °C in a humid chamber before putting them in contact with the bacterial inoculum diluted in MHB (~5 × 10^5 CFU/mL). The assay was incubated and read as mentioned in the microdilution section.
# E. coli [14] = conditions: for FIC Index: peptide + ciprofloxacin, lowest checkerboard FIC index (method 3); for FIC P (peptide): with ciprofloxacin
# Experimental: (§4) The checkerboard method was used for evaluating peptide antibacterial activity in combination with antibiotics [43]. […] Absorbance was measured at 620 nm and individual peptide and antibiotic MIC and combined MIC were obtained. […] The fractional inhibitory concentration index (FICI) was then calculated as the sum of peptide FIC + antibiotic FIC. A ≤ 0.5 FICI indicated synergy, 0.5 to ≤4 FICI indifference, and >4 FICI antagonism [45].
# (§5) The results were interpreted by taking the lowest checkerboard FIC index (previously reported method 3) [44].
# E. coli [15] = conditions: for FIC Index: peptide + gentamicin, lowest checkerboard FIC index (method 3); for FIC P (peptide): with gentamicin
# Experimental: as §4, §5
MIC [3],MIC [4],MIC [5],Compound,MIC E. coli 25922 (E. coli ATCC 25922 [1]),MIC P. aeruginosa 27853 (P. aeruginosa 27853),MHC (minimum haemolytic concentration) [2],other results
,,,KKMKKALQYIKL-NH2 [Peptide 35409-14],>100 µM,>100 µM,100 µM,
≤ 2 µg/mL,32 µg/mL,≤ 2 µg/mL,NCC[C@H](O)C(=O)N[C@@H]1C[C@H](N)[C@@H](O[C@H]2O[C@H](CN)[C@@H](O)[C@H](O)[C@H]2O)[C@H](O)[C@H]1O[C@H]1O[C@H](CO)[C@@H](O)[C@H](N)[C@H]1O [Amikacin],,,,
,,,RYRRKKK-NH2 [Peptide 35409-12],>100 µM,>100 µM,>200 µM,
≥ 32 µg/mL,≥ 32 µg/mL,≥ 32 µg/mL,"CC1(C)S[C@@H]2[C@H](NC(=O)[C@H](N)c3ccccc3)C(=O)N2[C@H]1C(=O)O [Ampicillin, ampicillin, reference compound]",,,,MIC E. coli ML35 43827 (antibiotics) (E. coli ML35 43827 [6]): <0.016 µg/mL; MIC E. coli 35218 (antibiotics) [7]: >16 µg/mL; MIC E. coli 11775 (antibiotics) (E. coli ATCC 11775): <0.016 µg/mL
,,,MKKALQYIKLLKE-NH2 [Peptide 35409-5],>100 µM,>100 µM,>200 µM,
,,,"cecropin P1 (SWLSKTAKKLENSAKKRISEGIAIAIQGGPR; UniProt P14661 14-44, looked up) [positive permeabilisation control peptide, reference compound]",,,,permeabilisation of E. coli internal membrane (E. coli ML35): capable of inducing a high rate of permeabilisation for the first 30 min of incubation
,,,KKKMKKALQYIKLLKE-NH2 [Peptide 35409-2],25 µM,>100 µM,>200 µM,"MIC against E. coli 25922, MHB (E. coli ATCC 25922 [1]): 25 µM; MBC E. coli 25922 (E. coli ATCC 25922 [8]): 25 µM; MBC E. coli ML35 43827 (E. coli ML35 43827 [9]): 12.5 µM; MIC E. coli ML35 43827 (E. coli ML35 43827 [6]): 6 µM; MIC E. coli 35218 [7]: 12.5 µM; MBC E. coli 35218 (E. coli 35218): 25 µM; MIC E. coli 11775 (E. coli ATCC 11775): >100 µM; MIC E. coli N°4 [10]: >100 µM; MIC E. coli N°40 [11]: 50 µM; MIC E. coli N°44 [12]: 50 µM; MBC E. coli N°44 [13]: > 100 µM; MIC against E. coli 25922, Serum (without Pre-Incubation) (E. coli 25922): 25 µM; FIC Index (E. coli [14]): 3; FIC P (peptide) (E. coli [14]): 1; FIC Index (E. coli [15]): 0.75; FIC P (peptide) (E. coli [15]): 0.25"
≤ 1 µg/mL,≥ 64 µg/mL,≤ 1 µg/mL,CC(C)(O/N=C(\C(=O)N[C@@H]1C(=O)N2C(C(=O)[O-])=C(C[n+]3ccccc3)CS[C@H]12)c1csc(N)n1)C(=O)O [Ceftazidime],,,,
,,,ALQYIKLLKE-NH2 [Peptide 35409-6],>100 µM,>100 µM,>200 µM,
≤ 1 µg/mL,≥ 64 µg/mL,≤ 1 µg/mL,CO/N=C(\C(=O)N[C@@H]1C(=O)N2C(C(=O)O)=C(COC(C)=O)CS[C@H]12)c1csc(N)n1 [Cefotaxime],,,,
,,,RYRRKKKMKKALQY-NH2 [Peptide 35409-9],>100 µM,>100 µM,>200 µM,
≤ 16 µg/mL,≤ 16 µg/mL,≤ 16 µg/mL,O=C1CN(/N=C/c2ccc([N+](=O)[O-])o2)C(=O)N1 [Nitrofurantoin],,,,
16 µg/mL,≥ 64 µg/mL,4 µg/mL,CC(=O)OCC1=C(C(=O)O)N2C(=O)[C@@H](NC(=O)Cc3cccs3)[C@H]2SC1 [Cephalothin],,,,
,,,RYRRKKKMKK-NH2 [Peptide 35409-11],>100 µM,>100 µM,>200 µM,
,,,YIKLLKE-NH2 [Peptide 35409-7],>100 µM,>100 µM,>200 µM,
,,≤ 1 µg/mL,CO/N=C(\C(=O)N[C@@H]1C(=O)N2C(C(=O)[O-])=C(C[N+]3(C)CCCC3)CS[C@H]12)c1csc(N)n1 [Cefepime],,,,
≤ 4 µg/mL,≤ 4 µg/mL,≤ 4 µg/mL,CO[C@@]1(NC(=O)Cc2cccs2)C(=O)N2C(C(=O)O)=C(COC(N)=O)CS[C@@H]21 [Cefoxitin],,,,
≤ 0.25 µg/mL,≤ 0.25 µg/mL,≤ 0.25 µg/mL,C[C@@H](O)[C@H]1C(=O)N2C(C(=O)O)=C(S[C@@H]3CN[C@H](C(=O)N(C)C)C3)[C@H](C)[C@H]12 [Meropenem],,,,
,,,KMKKALQYIKLLKE-NH2 [Peptide 35409-4],100 µM,>100 µM,>200 µM,"MIC against E. coli 25922, MHB (E. coli ATCC 25922 [1]): 100 µM; MBC E. coli 25922 (E. coli ATCC 25922 [8]): 100 µM; MBC E. coli ML35 43827 (E. coli ML35 43827 [9]): 50 µM; MIC E. coli ML35 43827 (E. coli ML35 43827 [6]): 25 µM; MIC E. coli 35218 [7]: 25 µM; MBC E. coli 35218 (E. coli 35218): 50 µM; MIC E. coli 11775 (E. coli ATCC 11775): >100 µM; MIC E. coli N°4 [10]: >100 µM; MIC E. coli N°40 [11]: >100 µM; MIC E. coli N°44 [12]: 100 µM; MBC E. coli N°44 [13]: > 100 µM; MIC against E. coli 25922, Serum (without Pre-Incubation) (E. coli 25922): 100 µM; FIC Index (E. coli [14]): 3; FIC P (peptide) (E. coli [14]): 1; FIC Index (E. coli [15]): 0.75; FIC P (peptide) (E. coli [15]): 0.25"
,,,RYRRKKKMKKALQYIKL-NH2 [Peptide 35409-8],>100 µM,>100 µM,>200 µM,
≤ 2 µg/mL,≥ 32 µg/mL,≥ 32 µg/mL,CCn1cc(C(=O)O)c(=O)c2ccc(C)nc21 [Nalidixic acid],,,,
,,,KKMKKALQYIKLLKE-NH2 [Peptide 35409-3],>100 µM,>100 µM,>200 µM,
,,,KMKKALQY-NH2 [Peptide 35409-16],>100 µM,>100 µM,>200 µM,
,,,RYRRKKKMKKA-NH2 [Peptide 35409-10],>100 µM,>100 µM,>200 µM,
,,,"O=C(O)c1cn(C2CC2)c2cc(N3CCNCC3)c(F)cc2c1=O [Ciprofloxacin, ciprofloxacin, reference compound]",,,,"MIC (E. coli 25922; Escherichia coli, 25922, read-out: MIC against E. coli 25922, Serum (6 h Pre-Incubation) (ciprofloxacin), fresh human sera (100%), 6 h pre-incubation at 37 °C): 0.004 µg/mL"
≤ 1 µg/mL,≤ 1 µg/mL,≤ 1 µg/mL,C[C@@H](O)[C@H]1C(=O)N2C(C(=O)O)=C(SCCN=CN)C[C@H]12 [Imipenem],,,,
,,,RKKKMKKALQY-NH2 [Peptide 35409-15],>100 µM,>100 µM,200 µM,
